Experimental data as given in article PMC9784874, “Inhibitors of HIV-1 and Cathepsin L Proteases Identified from the Insect Gall of Hypericum kouytchense” (Pharmaceuticals, 2022).
Where two headings read alike, the source gives them in different places.

Legend:
[1] = system: HIV replication in H9 lymphocytes; set-up: method as in PMID 15987189; conditions: cited from earlier work
[2] = biological target: T1, HIV-1 PR (Human immunodeficiency virus type 1 group M subtype B, UniProt P04585); assay: Fluorimetric HIV-1 protease inhibition assay; format: biochemical
T1 construct: 10.0, 4.0, 3.2 and 17.0 µg/mL against HIV-1 protease
Description: (§1) The inhibitory activities against HIV-1, Cat L and Renin PRs were assayed by fluorimetric methods using our previously published protocols.

[3] = biological target: Cat L PR (Homo sapiens, UniProt P07711); assay: Fluorimetric cathepsin L protease inhibition assay; format: biochemical; conditions: read-out: Cat L PR Inhi% at 100.0 µg/mL
Sequence of Cat L PR (P07711 114-333): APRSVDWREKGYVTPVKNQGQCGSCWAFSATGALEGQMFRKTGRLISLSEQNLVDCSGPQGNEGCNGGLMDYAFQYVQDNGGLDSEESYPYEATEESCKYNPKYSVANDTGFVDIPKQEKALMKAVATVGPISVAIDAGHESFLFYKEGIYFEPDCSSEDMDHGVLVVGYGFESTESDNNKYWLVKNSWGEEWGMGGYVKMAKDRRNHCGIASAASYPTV
Description: as §1

[4] = biological target: T2, human renin (Homo sapiens, UniProt P00797); assay: Fluorimetric renin protease inhibition assay; format: biochemical; conditions: extracts, n = 3
T2 sequence (P00797 67-406): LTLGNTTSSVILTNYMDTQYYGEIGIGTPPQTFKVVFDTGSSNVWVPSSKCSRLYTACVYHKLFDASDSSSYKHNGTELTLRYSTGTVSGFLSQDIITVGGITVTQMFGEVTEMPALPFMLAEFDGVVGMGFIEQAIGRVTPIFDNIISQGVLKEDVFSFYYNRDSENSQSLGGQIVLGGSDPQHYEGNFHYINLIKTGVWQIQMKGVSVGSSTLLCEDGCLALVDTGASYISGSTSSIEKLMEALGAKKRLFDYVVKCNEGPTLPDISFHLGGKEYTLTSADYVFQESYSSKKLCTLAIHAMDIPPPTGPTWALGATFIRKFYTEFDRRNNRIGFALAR
Description: as §1

[5] = active compounds, n = 3, read-out: HIV-1 PR IC50 (converted)

Molecule | therapeutic index (TI) [1] | HIV-1 PR Inhi% at 1000.0 µg/mL ([2]; n = 3) | IC50 [2, 5] | inhibition at 100 µg/mL ([3]; 100.0 µg/mL, n = 3) | IC50 [2] | inhibition at 100 µg/mL [3] | IC50 Renin PR [4]
C=C[C@@]1(C)COC(=O)[C@]12O[C@]1(c3ccccc3)[C@H](C2=O)[C@H]2[C@H]([C@H](C)CCC=C(C)C)CC=C(C)[C@H]21 [Biyouyanagin A] | higher than 31.3 | – | – | – | – | – | –
Oc1cc(O)c2c(c1)O[C@H](c1ccc(O)c(O)c1)[C@H](O)C2 [Epicatechin] | – | 66.0 ± 3.79% | 2760 µM | -17.7 ± 2.35% | – | – | –
O=C1C[C@@H](c2ccc(O)c(O)c2)Oc2cc(O)cc(O)c21 [Eriodictyol, Eriodicytiol] | – | 100.0 ± 4.98% | – | 14.3 ± 2.32% | 659 µM | – | –
Cc1cc(O)c2c(=O)c3c(O)cc(O)c4c5c(O)cc(O)c6c(=O)c7c(O)cc(C)c8c1c2c(c34)c(c78)c65 [Hypericin] | – | 100.0 ± 7.87% | – | 79.4 ± 2.02% | 3.57 µM | – | –
O=c1c(O[C@@H]2O[C@H](CO)[C@H](O)[C@H](O)[C@H]2O)c(-c2ccc(O)c(O)c2)oc2cc(O)cc(O)c12 [Hyperoside] | – | 72.6 ± 1.40% | – | 11.8 ± 2.56% | 84 µM | – | –
O=C(/C=C/c1ccc(O)cc1)c1c(O)cc(O)cc1O [Naringenin chalcone] | – | 100.0 ± 1.96% | 121 µM | 22.2 ± 6.77% | – | – | –
O=c1c(O)c(-c2ccc(O)c(O)c2)oc2cc(O)cc(O)c12 [Quercetin] | – | 50.3 ± 1.40% | – | -3.67 ± 6.59% | – | – | –
C[C@@H]1O[C@@H](Oc2c(-c3ccc(O)c(O)c3)oc3cc(O)cc(O)c3c2=O)[C@H](O)[C@H](O)[C@H]1O [Quercitrin] | – | 94.4 ± 7.86% | 44.6 µM | – | – | 16.3 ± 3.24% | –
C[C@@H]1O[C@@H](OC[C@H]2O[C@@H](Oc3c(-c4ccc(O)c(O)c4)oc4cc(O)cc(O)c4c3=O)[C@H](O)[C@@H](O)[C@@H]2O)[C@H](O)[C@H](O)[C@H]1O [Rutin] | – | 24.8 ± 3.85% | – | -4.81 ± 3.8% | – | – | –
C[C@@H]1O[C@@H](Oc2cc(O)c3c(c2)O[C@H](c2ccc(O)c(O)c2)[C@@H](O)C3=O)[C@H](O)[C@H](O)[C@H]1O [Taxifolin-7-O-rhamnoside] | – | 68.4 ± 5.45% | 1220 µM | 18.1 ± 0.95% | – | – | –
Ac–HPFV–(Sta)–LF–NH2 [Renin inhibitor] | – | – | – | – | – | – | 0.9 µg/mL
